The experiment relates to chicken embryo fibroblasts (CEF's) tissue model. As to the kind of experiment: Ring system: isometric force and dynamic stiffness of fibroblast populated matrices (FPM). The note with it: for contractile force produced in response to serum activation: cytochalasin D 2 μM. It is filed as cell-based. On the procedure: Chicken embryo fibroblasts (CEF's) isolated from 11-day chicken embryos (Spafas Inc., Preston, Conn.) were maintained in Dulbecco's modified Eagle's medium (DMEM) supplemented with 10% fetal calf serum (FCS), penicillin at 50 units/ml, and streptomycin at 50 microgram/milliliter. The CEF's used to make tissue models were passaged once or twice from primary cultures. Monomeric collagen solubilized in 0.02 M acetic acid (Upstate Biotechnology Inc., Lake Placid, N.Y.) was neutralized at 4° C. with 0.1 N NaOH and mixed with concentrated DMEM stock to yield a final normal DMEM concentration. The fibroblasts suspended by trypsin (FIG. 1a) were mixed with the collagen solution (FIG. 1b), the cell suspension was poured into Teflon casting wells (FIG. 1c), and the wells were incubated at 37° C. with 5% CO2 (FIG. 1d). The collagen polymerized within 15-30 min and fibroblasts were captured within the hydrated collagen gel. The collagen gel formed a ring (3 mm thick, 3 cm diameter) between the inner wall of the cylindrical well and the central mandrel. While in culture the cells compressed this ring, reducing its volume about 10-fold (thickness 200-300 μm). The ring could then be removed from the mandrel (FIG. 1e and FIG. 1f) and mounted on the measuring instrument (FIG. 1g) as described below.
Mechanical measurements were carried out using a ring system. After two days of incubation (serum starvation for the final 12-16 hours), the mandrel was removed from the casting well and the tissue model-ring was removed gently from the mandrel. As shown in FIG. 1 the tissue model-ring was looped over the triangular hook connected to an isometric force transducer (Model 52-9545, Harvard Apparatus, South Natick, Mass.) by a fine, flexible gold chain. The ring was also looped over a horizontal bar connected to a sliding element moveable vertically and linearly by a stepper motor (P/N 1-19-3400 24V DC 1.8° step size, Haward Industry, St. Louis, Mo.) controlled by a micro-stepping driver (IM483 Intelligent Motion Systems) to measure stress and dynamic modulus of the sample. The micro-stepping driver was controlled by a personal computer with software which enabled the stepper motor to achieve smooth motion. An analog-to-digital signal converter (CIO-DAS1602/16, Computer Boards, Inc., Mansfield, Mass.) attached to the computer translated the voltage signal from the isometric force transducer to a digital signal for recording on a data recorder. The stepper motor controlled the stretching of the tissue. Force exerted by or on the tissue was transmitted to the force transducer by the gold chain.
The tissue sample was submerged in 50 ml Hepes-buffered DMEM (pH 7.4) in a thermo-regulated organ bath (Harvard Apparatus, South Natick, Mass.) maintained at 37° C. The two horizontal bars over which the ring was looped were initially set to hold the ring at its original contour length (corresponding to the circumference of the mandrel).
Typically, for stiffness measurements, the tissue model is subjected to a sequence of stretch cycles. In each cycle the tissue model is slowly stretched from 0 to 20% over 30 minutes and the tissue model is then returned at the same rate to its original length by actuation of the stepper motor. The resulting increase in contractile force during the first stretch is substantially larger than the contractile force in subsequent stretches (FIG. 2a). For each stretch after the first stretch there is a further small decrease in maximum contractile force, but the decrease becomes negligible after sufficient pre-stretching. The tissue models produced contractile force in response to the activation of fibroblasts by serum. This contractile force was abolished by disrupting the actin cytoskeleton with cytochalasin D (2 μM) (FIG. 2b).
The amplitude of the force response divided by the stretching amplitude corresponded to the dynamic stiffness of the sample subjected to a preselected sinusoidal length change. […]

As to `C=C1[C@@H](C)[C@H]2[C@H](Cc3ccccc3)NC(=O)[C@]23[C@H](OC(C)=O)/C=C/[C@@](C)(O)C(=O)[C@@H](C)C/C=C/[C@H]3[C@@H]1O` [CD, cytochalasin D], the “concentration range over which tension and stiffness decrease” value is “almost three decades”; the “lowest concentration at which force and dynamic stiffness were significantly diminished” value worked out at 2 nM. Also, under “CD 2 μM”, the dynamic stiffness entry is on record as “nearly reached its minimum value” and the isometric force result was “reduced almost to zero”. Moreover, the “contractile force produced in response to serum activation” value (listed as Cytochalasin D) was “abolition of active contractility”. Moreover, under “listed as cytochalasin D”, the “contractile force produced in response to serum activation” value was “abolished”. Moreover, for the setting “data not shown”, the “effect on viscosity of the tissues (phase angle δ)” value was “relatively minor effect”. Moreover, the IC50 (two day-old tissue models, serum starved 16 hours, serial additions, read-out: concentration needed to reduce the force and dynamic stiffness by 50%) was about 250 nM.
